What all share (type): cell-based
For experiment [1], the system named is NCI-H2030 [G12C]. Put plainly: Protac activity at E3 ubiquitin ligase/KRAS G12C mutant in human NCI-H2030 cells assessed as maximal KRAS degradation at 0.3 uM after 24 hrs by Western blot analysis relative to control. A general note: Immunoblotting shows a protein as a band on a membrane.
Experiment [2] relates to NCI-H2030 [G12C]. Put plainly: Protac activity at E3 ubiquitin ligase/KRAS G12C mutant in human NCI-H2030 cells assessed as maximal KRAS degradation at 3 uM after 24 hrs by Western blot analysis relative to control.
The test system of experiment [3] is NCI-H2030 [G12C]. Put plainly: Protac activity at E3 ubiquitin ligase/KRAS G12C mutant in human NCI-H2030 cells assessed as maximal KRAS degradation at 1 uM after 24 hrs by Western blot analysis relative to control.

Broadly, the Emax is the size of the effect at its maximum, as opposed to the concentration needed.

Chain of NCI-H2030 [G12C] (as listed by the source, stated change not applied): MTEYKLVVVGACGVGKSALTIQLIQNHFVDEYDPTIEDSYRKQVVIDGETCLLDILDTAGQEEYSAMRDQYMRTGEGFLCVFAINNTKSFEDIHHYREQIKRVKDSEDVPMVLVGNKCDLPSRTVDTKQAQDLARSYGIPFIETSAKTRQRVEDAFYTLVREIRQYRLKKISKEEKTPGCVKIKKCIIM

With `CCC(=O)N1CCN(c2nc(NCCC(=O)N(C)CCOCCOCCOCCOCC(=O)N[C@H](C(=O)N3C[C@H](O)C[C@H]3C(=O)N[C@@H](C)c3ccc(-c4scnc4C)cc3)C(C)(C)C)nc3c(F)c(-c4cc(O)cc5ccccc45)c(Cl)cc23)CC1`, the maximal response (Emax) in the experiment on NCI-H2030 [G12C] [1], in the experiment on NCI-H2030 [G12C] [2] and in the experiment with NCI-H2030 [G12C] [3] was less than 25% in each case.
Regarding `C=CC(=O)N1CCN(c2nc(NCCC(=O)N(C)CCOCCOCCOCCNc3cccc4c3C(=O)N(C3CCC(=O)NC3=O)C4=O)nc3c(F)c(-c4cc(O)cc5ccccc45)c(Cl)cc23)CC1` (stereo not drawn), the Emax with NCI-H2030 [G12C] [1] was less than 25%; with NCI-H2030 [G12C] [2] it was 25 to 50%; in the experiment with NCI-H2030 [G12C] [3], 25 to 50%.
In the case of `C=CC(=O)N1CCN(c2nc(NCCC(=O)N(C)CCOCCOCCOCCOCCOCC(=O)N[C@H](C(=O)N3C[C@H](O)C[C@H]3C(=O)N[C@@H](C)c3ccc(-c4scnc4C)cc3)C(C)(C)C)nc3c(F)c(-c4cc(O)cc5ccccc45)c(Cl)cc23)CC1`, the maximum response (Emax) with NCI-H2030 [G12C] [1] was less than 25%; in the experiment with NCI-H2030 [G12C] [2] it was greater than 50%; in the experiment with NCI-H2030 [G12C] [3], greater than 50%.
In the case of `C=CC(=O)N1CCN(c2nc(NCCC(=O)N(C)CCOCCOCCOCC(=O)N[C@H](C(=O)N3C[C@H](O)C[C@H]3C(=O)N[C@@H](C)c3ccc(-c4scnc4C)cc3)C(C)(C)C)nc3c(F)c(-c4cc(O)cc5ccccc45)c(Cl)cc23)CC1`, the Emax is less than 25% in the experiment with NCI-H2030 [G12C] [1], 25 to 50% with NCI-H2030 [G12C] [2] and 25 to 50% in the experiment with NCI-H2030 [G12C] [3].
Turning to `CCC(=O)N1CCN(c2nc(NCCC(=O)N(C)CCOCCOCCOCCOCCOc3ccc4c(c3)CN(C3CCC(=O)NC3=O)C4=O)nc3c(F)c(-c4cc(O)cc5ccccc45)c(Cl)cc23)CC1` (stereo not drawn), the Emax in the experiment on NCI-H2030 [G12C] [1] was less than 25%; in the experiment on NCI-H2030 [G12C] [2] it was 25 to 50%; with NCI-H2030 [G12C] [3] it was 25 to 50%.
Consider `C=CC(=O)N1CCN(c2nc(NCCC(=O)N(C)CCOCCOCCOCCOCC(=O)N[C@H](C(=O)N3C[C@H](O)C[C@H]3C(=O)N[C@@H](C)c3ccc(-c4scnc4C)cc3)C(C)(C)C)nc3c(F)c(-c4cc(O)cc5ccccc45)c(Cl)cc23)CC1`, for which the maximal response (Emax) with NCI-H2030 [G12C] [1] was less than 25%; in the experiment on NCI-H2030 [G12C] [2] it was greater than 50%; in the experiment on NCI-H2030 [G12C] [3] it was greater than 50%.

The record behind these values is ChEMBL document CHEMBL4334536, “PROTAC-Mediated Degradation of KRAS Protein for Anticancer Therapeutics” (ACS Med Chem Lett, 2020).
